Assay results reported in ChEMBL document CHEMBL1129134, “DNA threading agents: effect of sidechain bulk on DNA binding and cytotoxicity of 9-anilinoacridine-4-carboxamides” (Bioorg Med Chem Lett, 1996).

System: HT-29
Assay: Compound was tested for biological activity against human colon carcinoma cell line HT-29/219
Type: functional, cell-based

SMILES | IC50 [µM]
Nc1c2ccccc2nc2c(C(=O)NC3CC3)cccc12 | 5.8
COc1cc(NS(C)(=O)=O)ccc1Nc1c2ccccc2nc2c(C(=O)NC3CC3)cccc12 | 3.6
COc1cc(NS(C)(=O)=O)ccc1Nc1c2ccccc2nc2c(C(=O)NCCN(C)C)cccc12 | 0.061
Nc1c2ccccc2nc2c(C(=O)NC3CCCCC3)cccc12 | 5.6
CN(C)CCNC(=O)c1cccc2c(N)c3ccccc3nc12 | 0.14
COc1cc(NS(C)(=O)=O)ccc1Nc1c2ccccc2nc2c(C(=O)NC3CCCCC3)cccc12 | 4.7
Nc1c2ccccc2nc2c(C(=O)NC3CCCCCCC3)cccc12 | 5.2
Nc1c2ccccc2nc2c(C(=O)NC3CCCCCCCCCCC3)cccc12 | 7.7
Nc1c2ccccc2nc2c(C(=O)NC34C[C@H]5C[C@@H](C3)C[C@@H](C4)C5)cccc12 | 0.57
COc1cc(NS(C)(=O)=O)ccc1Nc1c2ccccc2nc2c(C(=O)NC3CCCCCCCCCCC3)cccc12 | 3.3
COc1cc(NS(C)(=O)=O)ccc1Nc1c2ccccc2nc2c(C(=O)NC34C[C@H]5C[C@@H](C3)C[C@@H](C4)C5)cccc12 | 9.8
COc1cc(NS(C)(=O)=O)ccc1Nc1c2ccccc2nc2c(C(=O)NC3CCCCCCC3)cccc12 | 5.8
